According to PubChem BioAssay (NCI):
“And” between values parts separate entries of the source, which are not always exact repeats. Equal entries are not always repeated.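 In this assay, cells in 96-well plates receive the compound at five concentrations for 48 hours. Endpoints are linearly interpolated between the surrounding concentrations. GI50 = concentration required for 50% inhibition of growth. The concentration for full growth arrest is given as TGI.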

Columns and labels:
Assay in all cases: NCI anticancer screen, dose series, 48 h
RXF 393 renal = tested on: RXF 393 renal
RPMI-8226 leukemia = tested on: RPMI-8226 leukemia
LOX IMVI melanoma = tested on: LOX IMVI melanoma
TK-10 renal = tested on: TK-10 renal
SK-MEL-28 melanoma = tested on: SK-MEL-28 melanoma
HL-60(TB) leukemia = tested on: HL-60(TB) leukemia
MDA-MB-435 = tested on: MDA-MB-435
SF-295 CNS = tested on: SF-295 CNS
OVCAR-8 ovarian = tested on: OVCAR-8 ovarian
HS 578T breast = tested on: HS 578T breast

Structure (SMILES) | GI50 (RXF 393 renal) [µM] | TGI (RXF 393 renal) | GI50 (RPMI-8226 leukemia) [µM] | TGI (RPMI-8226 leukemia) | GI50 (LOX IMVI melanoma) [µM] | TGI (LOX IMVI melanoma) [µM] | GI50 (TK-10 renal) [µM] | TGI (TK-10 renal) [µM] | GI50 (SK-MEL-28 melanoma) [µM] | TGI (SK-MEL-28 melanoma) [µM] | GI50 (HL-60(TB) leukemia) [µM] | TGI (HL-60(TB) leukemia) | GI50 (MDA-MB-435) [µM] | TGI (MDA-MB-435) [µM] | GI50 (SF-295 CNS) [µM] | TGI (SF-295 CNS) [µM] | TGI (OVCAR-8 ovarian) | TGI (HS 578T breast) [µM] | GI50 (OVCAR-8 ovarian) [µM] | GI50 (HS 578T breast) [µM]
COc1cccc2c(=O)c3c(sc12)c(NCCCN)nc1ccccc13 | 1.53 | 2.96 µM | 2.11 | 4.92 µM | 1.3 | 2.68 | 1.99 | 3.63 | 1.87 | 3.36 | 1.98 | 3.94 µM | 1.8 | 3.34 | 1.77 | 3.25 |  |  |  | 
CCOC(OC1=C(C#N)CCC1)C(CC)[Se]c1ccccc1 (centres undefined) |  | 38.7 µM |  | 49.8 µM |  | 17.7 |  | > 100 |  | 90.4 |  | 38.4 µM |  |  |  | 52.7 | 65.2 µM |  |  | 
CC(O)C(NC(=O)C(CS)NC(=O)C(CO)NC(=O)C(CCCCN)NC(=O)C(Cc1c[nH]c2ccccc12)NC(=O)C(Cc1ccc(O)cc1)NC(=O)C(CS)NC(=O)C(N)Cc1ccccc1)C(N)=O (centres undefined) | 14.5 | > 25 µM and 36.6 µM | 22.3 | > 25 µM and 47.8 µM |  | > 25 |  |  |  | 76.9 | 21.5 | > 25 µM and 40.5 µM |  | > 25 |  | > 25 | > 25 µM and 81.5 µM | > 25 |  | 
CC1=CC[C@@H]2C(C)(C)[C@@H](O)CC[C@@]2(C)[C@@H]1COc1ccc2ccc(=O)oc2c1 | 13.2 | 35.3 µM |  |  | 4.77 | 19 | 12.5 | 26.4 | 11.8 | 26.7 | 3.27 | 14 µM | 10.3 | 23.9 | 10.8 | 23.1 | 17.2 µM | 23.4 | 3.77 | 3.29
CCc1cccc(C)c1NC(=O)CC1Sc2ccccc2NC1=O (centres undefined) |  | 73.7 µM |  | > 100 µM |  | > 100 |  | > 100 |  | > 100 |  | 47.3 µM |  |  |  | > 100 | > 100 µM |  |  | 
CC(=O)O/C(C)=C\C(=O)O/N=C(\N)c1ccc(C)cc1 |  | 99.3 µM |  | > 100 µM |  | > 100 |  | > 100 |  | 42.7 |  | 77.3 µM |  |  |  | > 100 | > 100 µM |  |  | 
C=CCN(N=O)C(=O)N(CCC)CCCC(NC(C)=O)C(=O)NCc1ccccc1 (centres undefined) |  | > 100 µM |  | > 100 µM |  | > 100 |  | > 100 |  | > 100 |  | > 100 µM |  |  |  | > 100 | > 100 µM |  |  | 
Cc1c(C(=O)CC(=O)C(=O)NC2C3CC4CC(C3)CC2C4)[n+](=O)c2ccccc2n1[O-] (centres undefined) |  | > 100 µM |  | > 100 µM |  | > 100 |  | > 100 |  | > 100 |  | > 100 µM |  |  |  | > 100 | > 100 µM |  |  | 
c1ccc(COc2ccc3[nH]c4c(ncc5[nH]c6ccccc6c54)c3c2)cc1 |  | 23.3 µM |  | 8.01 µM |  | 32.9 |  | 40.8 |  | 31.6 |  | 4.35 µM |  |  |  | 28.2 | 32.2 µM |  |  | 
O=C(O)c1nnsc1COCc1ccccc1 |  | > 100 µM |  | > 100 µM |  | > 100 |  | > 100 |  | > 100 |  |  |  | > 100 |  | > 100 | > 100 µM | > 100 |  | 
c1cc(-c2sc(-c3ccncc3)c(-c3ccncc3)c2-c2ccncc2)ccn1 |  | 33.4 µM |  | > 100 µM |  | 30.8 |  | 32.9 |  | 46.1 |  |  |  | 33.4 |  | 41.6 | > 100 µM | 73.5 |  | 
O=c1c(OC/C(=N/O)c2ccccc2)c(-c2ccccc2)oc2ccccc12 | 20.8 | > 50 µM | 7.07 | 15.6 µM | 10.5 | 19.5 | 11.6 | 22.8 | 16.6 | 28.9 | 12.6 | > 50 µM | 10.9 | 28 | 11.2 | 23.2 | > 50 µM |  | 21.7 | 
O=C1NC(=O)C(c2ccccc2Cl)=C1Nc1cccc(O)c1 | 1.92 | > 21.1 µM | 21.4 | > 25 µM | 15.1 | > 25 | 10.7 | > 25 | > 25 | > 25 | 4.93 | > 25 µM |  |  | 8.32 | > 25 | > 25 µM | 17.7 | 24.6 | 1.82
O=C(N=Nc1c(O)[nH]c2ccccc12)c1ccccc1O |  | > 100 µM |  | > 100 µM |  | > 100 |  | > 100 |  | > 100 |  | > 100 µM |  |  |  | > 100 | > 100 µM |  |  | 
COc1ccc2c(C3(O)CCNCC3)c[nH]c2c1 |  | > 100 µM |  | > 100 µM |  | > 100 |  | > 100 |  | > 100 |  | > 100 µM |  |  |  | > 100 | > 100 µM |  |  | 
O=c1oc2c3ccc4ccccc4c3n(Cc3nc4ccccc4[nH]3)c2c2ccccc12 |  | > 100 µM |  | > 100 µM |  | > 100 |  | > 100 |  | > 100 |  | 20 µM |  |  |  | > 100 | > 100 µM |  |  | 
Cc1ccc(S(=O)(=O)NCCN2c3nc4ccccc4cc3Sc3cc4ccccc4nc32)cc1 | 22.1 | 66.3 µM |  |  | > 81.7 | > 100 | 28.6 | > 100 | > 100 | > 100 | > 100 | > 100 µM | > 100 | > 100 | 4.04 | 18.5 | > 100 µM | 23.2 | 6.01 | 2.43
O=C(N/N=C/c1ccc(F)cc1)c1[nH]c2ccc(I)cc2c1-c1ccccc1 |  |  | 0.191 | 0.639 µM | 0.767 | > 100 | 19.7 | > 100 | 0.494 | 55.4 | 0.259 | 0.824 µM | 0.162 | 0.348 | 0.27 | 1.5 | > 51.2 µM | 0.642 | 0.971 | 0.235
O=C(Nc1ccc(Br)cc1)c1cc(Br)cc(Br)c1O |  |  | 1.67 | 6.26 µM | 3.24 | 10.1 | 4.2 | > 100 | 4.71 | 31.4 |  |  | 2.27 | 6.09 | 1.83 | 5 | 11 µM | 7.74 | 2.89 | 2.71
